Source: paper PMC11372076, “A dual inhibitor of PIP5K1C and PIKfyve prevents SARS-CoV-2 entry into cells” (Experimental & Molecular Medicine, 2024)

Legend:
Assay in all cases: SelectScreen Kinase Profiling Service (PIPK profiling)
Assay type in all cases: biochemical
PI4K2A (PI4K2 alpha) = details: 1 μM UNI418; [ATP] 10 μM
From the text: (§1) UNI418 has a core structure consisting of 4-quinazolinamine (Fig. 1a, green), which is often found in kinase inhibitors. […] The phosphoinositide (PI) system is a crucial regulatory mechanism in membrane trafficking and is tightly regulated through phosphorylation cascades by multiple phosphatidylinositol phosphate kinases (PIPKs)[30]. We hypothesized that UNI418 may inhibit PIPK(s) and performed PIPK profiling analysis. […] To test whether UNI418 interacts with PIP5K1C and PIKfyve, we performed a CETSA, which determines the characteristics of protein stabilization upon ligand binding to the target protein[31]. UNI418- or DMSO-treated cell lysates were incubated at different temperatures, and the presence of the target protein in the soluble fraction was analyzed by Western blotting (Fig. 1c).
(§2) Fig. 1 UNI418 specifically targets PIP5K1 and PIKfyve. a Chemical structure of UNI418. The 4-quinazolinamine core is highlighted in green. b Table of the kinase profiling analysis. Inhibition of several kinases was determined at a 1 μM concentration of UNI418 and analyzed by the SelectScreen Kinase Profiling Service (Thermo Fisher Scientific). c Cellular thermal shift assay. Ectopically expressed GFP-PIP5K1C and GFP-PIKfyve were heated to the indicated temperatures with/without UNI418, and the presence of protein in the soluble fraction was analyzed by Western blot analysis. TEXT PRINTED IN THE PICTURE: (b) UNI418: % Inhibition (mean): 11 ([ATP] Tested (μM): 10; Kinase Tested: PI4K2A (PI4K2 alpha)); % Inhibition (mean): 4 ([ATP] Tested (μM): 10; Kinase Tested: PI4K2B (PI4K2 beta)); % Inhibition (mean): -6 ([ATP] Tested (μM): 10; Kinase Tested: PI4KA (PI4K alpha)); % Inhibition (mean): 48 ([ATP] Tested (μM): Km app; Kinase Tested: PI4KB (PI4K beta)); % Inhibition (mean): 20 ([ATP] Tested (μM): 10; Kinase Tested: PIK3C2B (PI3K-C2 beta)); % Inhibition (mean): 22 ([ATP] Tested (μM): 10; Kinase Tested: PIK3C2G (PI3K-C2 gamma)); % Inhibition (mean): 4 ([ATP] Tested (μM): 100; Kinase Tested: PIK3C3 (hVPS34)); % Inhibition (mean): 8 ([ATP] Tested (μM): 10; Kinase Tested: PIK3CA/PIK3R3 (p110 alpha/p55 gamma)); % Inhibition (mean): 7 ([ATP] Tested (μM): 10; Kinase Tested: PIK3CB/PIK3R2 (p110 beta/p85 beta)); % Inhibition (mean): 9 ([ATP] Tested (μM): 10; Kinase Tested: PIP4K2A); % Inhibition (mean): 67 ([ATP] Tested (μM): 10; Kinase Tested: PIP5K1A); % Inhibition (mean): 93 ([ATP] Tested (μM): 10; Kinase Tested: PIP5K1B); % Inhibition (mean): 93 ([ATP] Tested (μM): 10; Kinase Tested: PIP5K1C); % Inhibition (mean): 100 ([ATP] Tested (μM): 100; Kinase Tested: PIKFYVE) | (b) Apilimod: % Inhibition (mean): 100 ([ATP] Tested (μM): 100; Kinase Tested: PIKFYVE) […]

PI4K2B (PI4K2 beta) = details: 1 μM UNI418; [ATP] 10 μM
From the text: as §1, §2

PI4KA (PI4K alpha) = details: 1 μM UNI418; [ATP] 10 μM
From the text: as §1, §2

PI4KB (PI4K beta) = details: 1 μM UNI418; [ATP] Km app
From the text: as §1, §2

PIK3C2B (PI3K-C2 beta) = details: 1 μM UNI418; [ATP] 10 μM
From the text: as §1, §2

PIK3C2G (PI3K-C2 gamma) = details: 1 μM UNI418; [ATP] 10 μM
From the text: as §1, §2

PIK3C3 (hVPS34) = details: 1 μM UNI418; [ATP] 100 μM
From the text: as §1, §2

[1] = system: PIK3CA/PIK3R3 (p110 alpha/p55 gamma); details: 1 μM UNI418; [ATP] 10 μM
From the text: as §1, §2

[2] = system: PIK3CB/PIK3R2 (p110 beta/p85 beta); details: 1 μM UNI418; [ATP] 10 μM
From the text: as §1, §2

PIP4K2A = details: 1 μM UNI418; [ATP] 10 μM
From the text: as §1, §2

**Q.** For `c1ccc(-c2cc(Nc3nc(-c4ccncc4)nc4ccccc34)n[nH]2)cc1` [UNI418, N -(5-phenyl-1 H -pyrazol-3-yl)-2-(4-pyridinyl)-4-quinazolinamine], which “% Inhibition (mean)” value (PI4K2A (PI4K2 alpha)) is on record?
**A.** 11%

**Q.** And the “% Inhibition (mean)” value (PI4K2B (PI4K2 beta))?
**A.** 4%

**Q.** And the “% Inhibition (mean)” value (PI4KA (PI4K alpha))?
**A.** -6%

**Q.** And the “% Inhibition (mean)” value (PI4KB (PI4K beta))?
**A.** 48%

**Q.** And the “% Inhibition (mean)” value (PIK3C2B (PI3K-C2 beta))?
**A.** 20%

**Q.** What about the “% Inhibition (mean)” value (PIK3C2G (PI3K-C2 gamma)) of the same compound?
**A.** 22%

**Q.** And the “% Inhibition (mean)” value (PIK3C3 (hVPS34))?
**A.** 4%

**Q.** And the “% Inhibition (mean)” value [1]?
**A.** 8%

**Q.** What about the “% Inhibition (mean)” value [2] of the same compound?
**A.** 7%

**Q.** And the “% Inhibition (mean)” value (PIP4K2A)?
**A.** 9%
